According to patent US20020137929A1, “1 - (3-heterocyclylphenyl) isothiourea, -isourea, -guanidine and -amidine herbicidal agents” (Intellectual Property Department, BASF Aktiengesellschaft, priority 1998, published 2002):

Experiments:
[1] = tested on: CYPSE (Flatsedge); experiment: Preemergence weed control under flooded paddy conditions; assay type: in vivo, Cyperus serotinus; settings: rated 3-4 weeks after treatment
Procedure, shortened: (§1)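 Herbicidal effect is scored visually on a 0-9 scale against an untreated control, three to four weeks after compounds are pipetted into the flood water (1.5 to 3 cm deep) over seeds planted in silt loam at 0.5 cm depth. Rates: about 0.0313 to 0.500 kg/ha.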

[2] = tested on: IPOHE (Morningglory, Ivyleaf); experiment: Preemergence herbicidal evaluation; assay type: in vivo, Ipomoea hederacea; settings: rated 4-5 weeks after treatment
Procedure, shortened: (§2)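 Steps: mix seeds into potting soil; plant atop ~1 inch soil; spray compound in aqueous acetone (~0.0156-0.500 kg/ha equivalent); maintain in greenhouse with watering; rate visually 0-9 versus control at 4-5 weeks.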

[3] = tested on: ABUTH (Velvetleaf); experiment: Preemergence herbicidal evaluation; assay type: in vivo, Abutilon theophrasti; settings: rated 4-5 weeks after treatment
Procedure, shortened: as §2

[4] = tested on: AMBEL (Ragweed, Common); experiment: Preemergence herbicidal evaluation; assay type: in vivo, Ambrosia artemisifolia; settings: rated 4-5 weeks after treatment
Procedure, shortened: as §2

[5] = tested on: ABUTH (Velvetleaf); experiment: Postemergence herbicidal evaluation; assay type: in vivo, Abutilon theophrasti; settings: postemergence
Procedure, shortened: (§3)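 Two-week-old seedlings sprayed with compound in 50/50 acetone/water plus 0.5% TWEEN 20, at about 0.0156 to 0.500 kg/ha, nozzle at 40 psi. Kept in greenhouse; rated visually 4-5 weeks after treatment on a 0-9 scale versus control, repeat tests averaged.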

[6] = tested on: GLXMAW (Soybean, Williams); experiment: Postemergence herbicidal evaluation; assay type: in vivo, Glycine max, (L.) Merr. cv Williams; settings: postemergence
Procedure, shortened: as §3

[7] = tested on: ECHORC (Watergrass (Calif.)); experiment: Preemergence weed control under flooded paddy conditions; assay type: in vivo, Echinochloa oryzoides; settings: rated 3-4 weeks after treatment
Procedure, shortened: as §1

[8] = tested on: ZEAMX (Corn, Field); experiment: Postemergence herbicidal evaluation; assay type: in vivo, Zea mays; settings: postemergence
Procedure, shortened: as §3

[9] = tested on: CASOB (Sicklepod); experiment: Preemergence herbicidal evaluation; assay type: in vivo, Cassia obtusifolia; settings: rated 4-5 weeks after treatment
Procedure, shortened: as §2

[10] = tested on: ECHORC (Watergrass (Calif.)); experiment: Postemergence weed control under flooded paddy conditions; assay type: in vivo, Echinochloa oryzoides; settings: postemergence weeds, rated 3 to 4 weeks after treatment
Procedure, shortened: (§4)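 Injury ratings (0–9 scale covering stand, vigor, malformation, size, chlorosis and overall appearance versus control) were made three to four weeks after treatment. Test material, about 0.0313 to 0.500 kg/ha a.i. in 50/50 v/v aqueous/acetone, was added to flood water 1.5 to 3 cm deep over 3 to 5 cm weeds and 1.5 to 2.5 leaf rice.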

[11] = tested on: IPOHE (Morningglory, Ivyleaf); experiment: Postemergence herbicidal evaluation; assay type: in vivo, Ipomoea hederacea; settings: postemergence
Procedure, shortened: as §3

[12] = tested on: CYPIR (Rice Flatsedge); experiment: Postemergence weed control under flooded paddy conditions; assay type: in vivo, Cyperus iria; settings: postemergence weeds, rated 3 to 4 weeks after treatment
Procedure, shortened: as §4

[13] = tested on: ECHCG (Barnyardgrass); experiment: Preemergence herbicidal evaluation; assay type: in vivo, Echinochloa crus-galli; settings: rated 4-5 weeks after treatment
Procedure, shortened: as §2

[14] = tested on: SETVI (Foxtail, Green); experiment: Postemergence herbicidal evaluation; assay type: in vivo, Setaria viridis; settings: postemergence
Procedure, shortened: as §3

COC(=O)[C@@H](Cc1ccccc1)N1C(=O)CSC1=Nc1cc(-n2c(=O)cc(C(F)(F)F)n(C)c2=O)c(F)cc1Cl [Compound 74, Methyl α-benzyl-2-{{2-chloro-5-[3,6-dihydro-3-methyl-2,6-dioxo-4-(trifluoromethyl)-1(2H)-pyrimidinyl]-4-fluorophenyl}imino}-4-oxo-3-thiazolidineacetate, D-]
CYPSE herbicidal effect rating ([1]; 0.0313 kg/ha): 0.0
CYPSE herbicidal effect rating ([1]; 0.0625 kg/ha): 5.0
CYPSE herbicidal effect rating ([1]; 0.1250 kg/ha): 5.0
CYPSE herbicidal effect rating ([1]; 0.2500 kg/ha): 9.0
Preemergence herbicidal rating IPOHE ([2]; rate 0.0156 kg/ha): 0.0
Preemergence herbicidal rating IPOHE ([2]; rate 0.0625 kg/ha): 1.0
Preemergence herbicidal rating IPOHE ([2]; rate 0.1250 kg/ha): 0.0
Preemergence herbicidal rating IPOHE ([2]; rate 0.2500 kg/ha): 1.0
Preemergence herbicidal rating ABUTH ([3]; rate 0.0156 kg/ha): 0.0
Preemergence herbicidal rating ABUTH ([3]; rate 0.0313 kg/ha): 4.0
Preemergence herbicidal rating ABUTH ([3]; rate 0.0625 kg/ha): 9.0
Preemergence herbicidal rating ABUTH ([3]; rate 0.1250 kg/ha): 9.0
Preemergence herbicidal rating ABUTH ([3]; rate 0.2500 kg/ha): 9.0
Preemergence herbicidal rating AMBEL ([4]; rate 0.0156 kg/ha): 0.0
Preemergence herbicidal rating AMBEL ([4]; rate 0.0313 kg/ha): 1.0
Preemergence herbicidal rating AMBEL ([4]; rate 0.0625 kg/ha): 3.0
Preemergence herbicidal rating AMBEL ([4]; rate 0.1250 kg/ha): 9.0
Preemergence herbicidal rating AMBEL ([4]; rate 0.2500 kg/ha): 9.0
ABUTH herbicidal rating ([5]; rate 0.0158 kg/ha): 9.0
ABUTH herbicidal rating ([5]; rate 0.0315 kg/ha): 9.0
ABUTH herbicidal rating ([5]; rate 0.0630 kg/ha): 9.0
GLXMAW herbicidal rating ([6]; rate 0.0158 kg/ha): 5.5
GLXMAW herbicidal rating ([6]; rate 0.0315 kg/ha): 5.0
GLXMAW herbicidal rating ([6]; rate 0.0630 kg/ha): 6.5
ECHORC herbicidal effect rating ([7]; 0.0313 kg/ha): 7.0
ECHORC herbicidal effect rating ([7]; 0.0625 kg/ha): 9.0
ECHORC herbicidal effect rating ([7]; 0.1250 kg/ha): 9.0
ECHORC herbicidal effect rating ([7]; 0.2500 kg/ha): 9.0
ZEAMX herbicidal rating ([8]; rate 0.0158 kg/ha): 4.5
ZEAMX herbicidal rating ([8]; rate 0.0315 kg/ha): 5.0
ZEAMX herbicidal rating ([8]; rate 0.0630 kg/ha): 5.5
Preemergence herbicidal rating CASOB ([9]; rate 0.0156 kg/ha): 0.0
Preemergence herbicidal rating CASOB ([9]; rate 0.0313 kg/ha): 0.0
Preemergence herbicidal rating CASOB ([9]; rate 0.0625 kg/ha): 0.0
Preemergence herbicidal rating CASOB ([9]; rate 0.1250 kg/ha): 0.0
Preemergence herbicidal rating CASOB ([9]; rate 0.2500 kg/ha): 0.0
Herbicidal rating ECHORC ([10]; Rate 0.0313 kg/ha): 7.0
Herbicidal rating ECHORC ([10]; Rate 0.0625 kg/ha): 9.0
Herbicidal rating ECHORC ([10]; Rate 0.1250 kg/ha): 9.0
Herbicidal rating ECHORC ([10]; Rate 0.2500 kg/ha): 9.0
IPOHE herbicidal rating ([11]; rate 0.0158 kg/ha): 9.0
IPOHE herbicidal rating ([11]; rate 0.0315 kg/ha): 9.0
IPOHE herbicidal rating ([11]; rate 0.0630 kg/ha): 9.0
Herbicidal rating CYPIR ([12]; Rate 0.0313 kg/ha): 0.0
Herbicidal rating CYPIR ([12]; Rate 0.0625 kg/ha): 0.0
Herbicidal rating CYPIR ([12]; Rate 0.1250 kg/ha): 0.0
Herbicidal rating CYPIR ([12]; Rate 0.2500 kg/ha): 0.0
Preemergence herbicidal rating ECHCG ([13]; rate 0.0156 kg/ha): 0.0
Preemergence herbicidal rating ECHCG ([13]; rate 0.0313 kg/ha): 0.0
Preemergence herbicidal rating ECHCG ([13]; rate 0.0625 kg/ha): 1.0
Preemergence herbicidal rating ECHCG ([13]; rate 0.1250 kg/ha): 0.0
Preemergence herbicidal rating ECHCG ([13]; rate 0.2500 kg/ha): 1.0
SETVI herbicidal rating ([14]; rate 0.0158 kg/ha): 1.0
SETVI herbicidal rating ([14]; rate 0.0315 kg/ha): 1.0
SETVI herbicidal rating ([14]; rate 0.0630 kg/ha): 2.0
